Results taken from US5773446A, “Diamino pyrimidines” (Hoffmann-La Roche Inc., priority 1995, dated 1998).

Tests used:
[1] = molecular target: purified DHFR of the reference strain S. aureus ATCC 25923 (Staphylococcus aureus, UniProt P0A017); experiment: Inhibition of purified DHFR of reference strain S. aureus ATCC 25923; type: biochemical
From the text: (§1) The inhibition of this enzyme was taken as a measurement for the antibacterial activity.

[2] = molecular target: T1, purified DHFR of the opportunistic pathogen P. carinii (Pneumocystis carinii, UniProt P16184); experiment: biochemical
T1 sequence (P16184 1-206): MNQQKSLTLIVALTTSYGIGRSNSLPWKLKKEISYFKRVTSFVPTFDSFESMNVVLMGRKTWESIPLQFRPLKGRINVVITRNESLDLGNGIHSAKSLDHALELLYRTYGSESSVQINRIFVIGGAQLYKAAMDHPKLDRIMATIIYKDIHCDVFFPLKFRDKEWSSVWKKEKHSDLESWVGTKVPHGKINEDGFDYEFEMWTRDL
From the text: as §1

Sequence of purified DHFR of the reference strain S. aureus ATCC 25923 (P0A017 whole entry): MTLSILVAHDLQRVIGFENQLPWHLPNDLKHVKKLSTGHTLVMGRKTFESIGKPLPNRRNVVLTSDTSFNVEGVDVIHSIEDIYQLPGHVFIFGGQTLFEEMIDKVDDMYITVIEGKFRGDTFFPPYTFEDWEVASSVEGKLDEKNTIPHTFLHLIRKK

COc1cc(Cc2cnc(N)nc2N)c2c(c1OC)OC(CCCC(=O)O)C=C2 (racemic) [Example 6, (RS)-4-[5-(2,4-diamino-pyrimidin-5-ylmethyl)-7,8-dimethoxy-2H-1-benzopyran-2-yl]-butyric acid]
IC50 [1]: 5 nM | IC50 [2]: 220 nM

CCCCCC1C=Cc2c(Cc3cnc(N)nc3N)cc(OC)c(OC)c2O1 (racemic) [Example 7, (RS)-5-(7,8-dimethoxy-2-pentyl-2H-1-benzopyran-5-ylmethyl)-pyrimidine-2,4-diamine]
IC50 [1]: 16 nM | IC50 [2]: 2800 nM

COc1cc(Cc2cnc(N)nc2N)c2c(c1OC)OC(C(C)C)C=C2 (racemic) [Example 8, (RS)-5-(2-isopropyl-7,8-dimethoxy-2H-1-benzopyran-5-ylmethyl)-pyrimidine-2,4-diamine]
IC50 [1]: 1 nM | IC50 [2]: 1000 nM

COc1cc(Cc2cnc(N)nc2N)c2c(c1OC)OC(CC(C)C)C=C2 (racemic) [Example 9, (RS)-5-(2-isobutyl-7,8-dimethoxy-2H-1-benzopyran-5-ylmethyl)-pyrimidine-2,4-diamine]
IC50 [1]: 1 nM | IC50 [2]: 3000 nM

COc1c(OCCCC(=O)O)cc(Cc2cnc(N)nc2N)c2c1OCC=C2 [Example 10, 4-[5-(2,4-diamino-pyrimidin-5-ylmethyl)-8-methoxy-2H-1-benzopyran-7-yloxy]-butyric acid]
IC50 [1]: 5 nM | IC50 [2]: 40 nM
